Measured values published in US4729991A, “Cephem compounds” (Fujisawa Pharmaceutical Co., Ltd., priority 1978, dated 1988).
Converted amounts (≈) assume the structure as drawn.

Key:
Experiment in all cases: In vitro antibacterial activity, two-fold agar-plate dilution method
Type in all cases: cell-based
[1] = tested on: Escherichia coli NIHJ JC-2; settings: NIHJJC2, HI-agar, 37° C., 20 hours
Procedure: (§1) (1) Test method In vitro antibacterial activity was determined by the two-fold agar-plate dilution method as described below. One loopful of an overnight culture of each test strain in Trypticase-soy broth was streaked on heart infusion agar (HI-agar) containing graded concentrations of the test compound and incubated at 37° C. for 20 hours. The minimal inhibitory concentration (MIC) was expressed in μg/ml.

Klebsiella pneumoniae 20 = settings: HI-agar, 37° C., 20 hours
Procedure: as §1

Proteus mirabilis 18 = settings: HI-agar, 37° C., 20 hours
Procedure: as §1

[2] = tested on: Proteus vulgaris IAM-1025; settings: IAM1025, HI-agar, 37° C., 20 hours
Procedure: as §1

[3] = tested on: Pseudomonus aeruginosa NCTC-10490; settings: HI-agar, 37° C., 20 hours
Procedure: as §1

[4] = tested on: Staphylococcus aureus 209P JC-1; settings: HI-agar, 37° C., 20 hours
Procedure: as §1

Row | SMILES | MIC [1] [µg/mL] | MIC (Klebsiella pneumoniae 20) [µg/mL] | MIC (Proteus mirabilis 18) [µg/mL] | MIC [2] [µg/mL] | MIC [3] [µg/mL] | MIC [4] [µg/mL]
1 | CO/N=C(\C(=O)NC1C(=O)N2C(C(=O)O)=C(CSc3nnc(C)s3)CSC12)c1nc(N)sc1Br (stereo not drawn) [compound 2, 7-[2-(2-amino-5-bromothiazol-4-yl)-2-methoxyiminoacetamide]-3-(5-methyl-1,3,4-thiadiazol-2-ylthiomethyl)-3-cephem-4-carboxylic acid (syn isomer)] | 1.56 (≈ 2.57 µM) | 3.13 (≈ 5.16 µM) | 6.25 (≈ 10.3 µM) | 12.5 (≈ 20.6 µM) | 6.25 (≈ 10.3 µM) | 3.13 (≈ 5.16 µM)
2 | CO/N=C(\C(=O)NC1C(=O)N2C(C(=O)O)=C(CSc3nnnn3C)CSC12)c1nc(N)sc1Br (stereo not drawn) [compound 3, 7-[2-(2-amino-5-bromothiazol-4-yl)-2-methoxyiminoacetamido]-3-(1-methyl-1H-tetrazol-5-ylthiomethyl)-3-cephem-4-carboxylic acid (syn isomer)] | 1.56 (≈ 2.64 µM) | 0.39 (≈ 0.66 µM) | 3.13 (≈ 5.3 µM) | 12.5 (≈ 21.2 µM) | 3.13 (≈ 5.3 µM) | 3.13 (≈ 5.3 µM)
3 | CO/N=C(\C(=O)NC1C(=O)N2C(C(=O)O)=C(CSc3nncs3)CSC12)c1nc(N)sc1Cl (stereo not drawn) [compound 5, 7-[2-(2-amino-5-chlorothiazol-4-yl)-2-methoxyiminoacetamido]-3-(1,3,4-thiadiazol-2-ylthiomethyl)-3-cephem-4-carboxylic acid (syn isomer)] | 1.56 (≈ 2.85 µM) | 0.39 (≈ 0.712 µM) | 0.78 (≈ 1.42 µM) | 1.56 (≈ 2.85 µM) | 1.56 (≈ 2.85 µM) | 3.13 (≈ 5.71 µM)

Continued by falling MIC [1], values first:

Row | MIC [1] [µg/mL] | MIC (Klebsiella pneumoniae 20) [µg/mL] | MIC (Proteus mirabilis 18) [µg/mL] | MIC [2] [µg/mL] | MIC [3] [µg/mL] | MIC [4] [µg/mL] | SMILES
4 | 6.25 (≈ 10.5 µM) | 1.56 (≈ 2.62 µM) | 3.13 (≈ 5.25 µM) | 12.5 (≈ 21 µM) | 6.25 (≈ 10.5 µM) | 1.56 (≈ 2.62 µM) | CO/N=C(\C(=O)NC1C(=O)N2C(C(=O)O)=C(COC(=O)c3ccccc3)CSC12)c1nc(N)sc1Br (stereo not drawn) [compound 4, 7-[2-(2-amino-5-bromothiazol-4-yl)-2-methoxyiminoacetamido]-3-benzoyloxymethyl-3-cephem-4-carboxylic acid (syn isomer)]
5 | 0.78 (≈ 1.32 µM) | 0.78 (≈ 1.32 µM) | 0.78 (≈ 1.32 µM) | 6.25 (≈ 10.5 µM) | 3.13 (≈ 5.28 µM) | 1.56 (≈ 2.63 µM) | CO/N=C(\C(=O)NC1C(=O)N2C(C(=O)O)=C(CSc3nncs3)CSC12)c1nc(N)sc1Br (stereo not drawn) [compound 1, 7-[2-(2-amino-5-bromothiazol-4-yl)-2-methoxyiminoacetamido]-3-(1,3,4-thiadiazol-2-ylthiomethyl)-3-cephem-4-carboxylic acid (syn isomer)]
